How the values were obtained:
Assay type in all cases: biochemical
[1] = target: cloned human μ opioid receptor (MOP) (Homo sapiens, UniProt P35372); experiment: [35S]GTPγS binding assay, inhibition of DAMGO-stimulated binding
[2] = target: cloned human δ opioid receptor (DOP) (Homo sapiens, UniProt P41143); experiment: [35S]GTPγS binding assay, inhibition of DPDPE-stimulated binding
[3] = target: cloned human κ opioid receptor (KOP) (Homo sapiens, UniProt P41145); experiment: [35S]GTPγS binding assay, inhibition of U69,593-stimulated binding; conditions: for δ/κ: selectivity for κ relative to δ (fold)
Sequence of cloned human κ opioid receptor (KOP) (P41145 whole entry): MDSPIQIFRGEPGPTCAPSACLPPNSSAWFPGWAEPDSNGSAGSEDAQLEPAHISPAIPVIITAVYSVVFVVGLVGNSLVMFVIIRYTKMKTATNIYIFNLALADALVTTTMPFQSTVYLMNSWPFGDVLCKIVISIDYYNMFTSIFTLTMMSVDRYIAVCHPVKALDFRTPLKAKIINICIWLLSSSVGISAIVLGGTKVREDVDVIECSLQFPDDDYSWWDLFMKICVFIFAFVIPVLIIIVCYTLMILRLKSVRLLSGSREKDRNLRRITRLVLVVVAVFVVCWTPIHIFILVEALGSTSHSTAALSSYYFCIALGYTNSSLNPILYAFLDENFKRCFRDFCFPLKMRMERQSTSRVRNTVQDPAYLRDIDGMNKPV

Sequence of cloned human δ opioid receptor (DOP) (P41143 whole entry): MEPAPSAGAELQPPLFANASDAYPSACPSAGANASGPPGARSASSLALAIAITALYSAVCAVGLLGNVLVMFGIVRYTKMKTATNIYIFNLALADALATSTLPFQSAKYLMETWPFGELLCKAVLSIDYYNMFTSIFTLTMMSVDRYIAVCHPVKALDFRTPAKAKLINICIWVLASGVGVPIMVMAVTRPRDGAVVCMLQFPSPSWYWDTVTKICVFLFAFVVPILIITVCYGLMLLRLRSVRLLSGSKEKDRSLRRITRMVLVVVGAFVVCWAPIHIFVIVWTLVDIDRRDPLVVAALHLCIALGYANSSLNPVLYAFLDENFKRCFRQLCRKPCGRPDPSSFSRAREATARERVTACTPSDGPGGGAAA
Sequence of cloned human μ opioid receptor (MOP) (P35372 whole entry): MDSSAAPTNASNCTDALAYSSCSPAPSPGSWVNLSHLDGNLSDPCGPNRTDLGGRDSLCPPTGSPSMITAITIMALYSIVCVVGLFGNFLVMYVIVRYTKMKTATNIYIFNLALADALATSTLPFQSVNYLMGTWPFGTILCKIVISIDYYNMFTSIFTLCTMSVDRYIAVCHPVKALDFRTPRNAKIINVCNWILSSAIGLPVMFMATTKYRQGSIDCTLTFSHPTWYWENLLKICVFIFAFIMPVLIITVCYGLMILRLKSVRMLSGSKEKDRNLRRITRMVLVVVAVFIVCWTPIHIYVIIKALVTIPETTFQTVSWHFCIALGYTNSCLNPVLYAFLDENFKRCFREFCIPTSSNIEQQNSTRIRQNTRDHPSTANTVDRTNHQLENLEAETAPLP

## CC(C)[C@@H](CN1CCN(c2cccc(O)c2)[C@@H](C)C1)NC(=O)[C@H]1Cc2ccc(O)cc2CN1 [10a, (3R)-7-Hydroxy-N-[(1S)-1-{[(3S)-4-(3-hydroxyphenyl)-3-methylpiperazin-1-yl]methyl}-2-methylpropyl]-1,2,3,4-tetrahydroisoquinoline-3-carboxamide]
[1]
  Kb: 74.2 ± 7.6 nM
[2]
  Kb: 1310 ± 317 nM

## CC(C)[C@@H](CN1CCN(c2cccc(O)c2)[C@H](C)C1)NC(=O)[C@H]1Cc2ccc(O)cc2CN1 [10b, (3R)-7-Hydroxy-N-[(1S)-1-[[(3R)-4-(3-hydroxyphenyl)-3-methylpiperazin-1-yl]methyl}-2-methylpropyl]-1,2,3,4-tetrahydroisoquinoline-3-carboxamide]
[1]
  Kb: 49.4 ± 2.7 nM
[2]
  Kb: 1550 ± 251 nM

## Cc1cccc(Oc2ccc(C(=O)N[C@H](CN3CCN(c4cccc(O)c4)[C@@H](C)C3)C(C)C)c(C)c2)c1 [12f, N-[(1S)-1-{[(3S)-4-(3-Hydroxyphenyl)-3-methylpiperazin-1-yl]methyl}-2-methylpropyl]-2-methyl-4-(3-methylphenoxy)benzamide]
[1]
  Kb: 18 ± 3 nM
[2]
  Kb: 14 ± 3 nM

## Cc1cccc(Oc2ccc(C(=O)N[C@H](CN3CCN(c4cccc(O)c4)[C@@H](C)C3)C(C)C)c(O)c2)c1 [12h, 2-Hydroxy-N-[(1S)-1-{[(3S)-4-(3-hydroxyphenyl)-3-methylpiperazin-1-yl]methyl}-2-methylpropyl]-4-(3-methylphenoxy)benzamide]
[1]
  Kb: 119 ± 28 nM
[2]
  Kb: 880 ± 320 nM
[3]
  Kb: 1.9 ± 0.4 nM

## COc1cc(C(=O)N[C@H](CN2CCN(c3cccc(O)c3)[C@@H](C)C2)C(C)C)ccc1Oc1ccccc1O [12i, 4-(2-Hydroxyphenoxy)-N-[(1S)-1-{[(3S)-4-(3-hydroxyphenyl)-3-methylpiperazin-1-yl]methyl}-2-methylpropyl]-3-methoxybenzamide]
[2]
  Kb: 117 ± 60 nM

## CC(C)[C@@H](CN1CCN(c2cccc(O)c2)[C@@H](C)C1)NC(=O)c1ccc(Oc2ccccc2O)c(Cl)c1 [12j, 3-Chloro-4-(2-hydroxyphenoxy)-N-[(1S)-1-{[(3S)-4-(3-hydroxyphenyl)-3-methylpiperazin-1-yl]methyl}-2-methylpropyl]benzamide]
[1]
  Kb: 36 ± 9 nM
[2]
  Kb: 210 ± 82 nM
[3]
  Kb: 5 ± 0.82 nM

## COc1cc(C(=O)N[C@H](CN2CCN(c3cccc(O)c3)[C@@H](C)C2)C(C)C)ccc1Oc1cc(C)ccc1O [12k, 4-(2-Hydroxy-5-methylphenoxy)-N-[(1S)-1-{[(3S)-4-(3-hydroxyphenyl)-3-methylpiperazin-1-yl]methyl}-2-methylpropyl]-3-methoxybenzamide]
[1]
  Kb: 10.2 ± 3 nM
[2]
  Kb: 117 ± 80 nM

## CC(C)[C@@H](CN1CCN(c2cccc(O)c2)[C@@H](C)C1)NC(=O)c1ccc(-c2ccccc2)cc1 [compound 22, N-[(1S)-1-{[(3S)-4-(3-Hydroxyphenyl)-3-methylpiperazin-1-yl]methyl}-2-methylpropyl]biphenyl-4-carboxamide]
[1]
  Kb: 8.69 ± 3 nM
[2]
  Kb: 258 ± 88 nM
[3]
  Kb: 1.87 ± 0.47 nM

## CCCCc1ccc(C(=O)N[C@H](CN2CCN(c3cccc(O)c3)[C@@H](C)C2)C(C)C)cc1 [compound 23, 4-Butyl-N-[(1S)-1-{[(3S)-4-(3-hydroxyphenyl)-3-methylpiperazin-1-yl]methyl}-2-methylpropyl]benzamide]
[1]
  Kb: 21.1 ± 2 nM
[2]
  Kb: 230 ± 3 nM
[3]
  Kb: 2.8 ± 1 nM

## COc1ccc(C(=O)N[C@H](CN2CCN(c3cccc(O)c3)[C@@H](C)C2)C(C)C)cc1OC [compound 24, N-[(1S)-1-{[(3S)-4-(3-Hydroxyphenyl)-3-methylpiperazin-1-yl]methyl}-2-methylpropyl]-3,4-dimethoxybenzamide]
[1]
  Kb: 334 ± 110 nM
[2]
  Kb: > 10000 nM
[3]
  Kb: 81.7 ± 30 nM
[3]; ratio of Ke values
  δ/κ: >122

## N-(1S)-1-{[(3S)-4-(3-Hydroxyphenyl)-3-methylpiperazin-1-yl]methyl}-2-methylpropyl]-5-phenoxypyridine-2-carboxamide [compound 14]
[3]; ratio of Ke values
  δ/κ: 1119
[3]; ratio of Ke values, selectivity for κ relative to μ (fold)
  μ/κ: 38

— paper PMC3701944 (Journal of medicinal chemistry, 2013)
